From US20240383904A1, “HETEROCYCLIC COMPOUNDS” (Hoffmann-La Roche Inc., priority 2021, published 2024) come the findings set out here.

The test addresses T1, MAGL (Homo sapiens, UniProt Q99685).
T1 sequence (Q99685 1-303): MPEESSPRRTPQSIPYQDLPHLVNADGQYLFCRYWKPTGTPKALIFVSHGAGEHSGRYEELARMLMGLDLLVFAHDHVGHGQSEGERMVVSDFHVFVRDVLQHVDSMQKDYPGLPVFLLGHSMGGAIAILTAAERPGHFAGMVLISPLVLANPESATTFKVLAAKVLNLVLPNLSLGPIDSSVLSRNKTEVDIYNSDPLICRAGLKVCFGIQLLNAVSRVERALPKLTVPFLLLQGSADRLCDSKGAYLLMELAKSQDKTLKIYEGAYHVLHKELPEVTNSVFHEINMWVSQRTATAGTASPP
The test is described as follows: 2-AG assay: MAGL inhibitory activity by hydrolysis of 2-arachidonoylglycerol to arachidonic acid, followed by mass spectrometry. To be noted: 15 min preincubation, 30 min reaction at RT, 8 μM 2-arachidonoylglycerol. It counts as biochemical.
As for `O=C1NC2(CO1)CN(C(=O)N1CC3(CN(Cc4ncc(F)cc4F)C3)C1)C2` [Example 162, 2-[6-[(3,5-difluoro-2-pyridyl)methyl]-2,6-diazaspiro[3.3]heptane-2-carbonyl]-7-oxa-2,5-diazaspiro[3.4]octan-6-one], the IC50 (in general, the point on the concentration scale where inhibition reaches its midpoint) was determined as 15.1 nM.

The compound `CS(=O)(=O)c1cccc(CN2CCC3(CC2)CN(C(=O)N2CC4(CCC(=O)N4)C2)C3)c1` [Example 163, 2-[7-(3-mesylbenzyl)-2,7-diazaspiro[3.5]nonane-2-carbonyl]-2,5-diazaspiro[3.4]octan-6-one] came in with a half-maximal inhibitory concentration (IC50) of 2.78 nM.

`CS(=O)(=O)c1ccc(CN2CC3(C2)CN(C(=O)N2CC4(COC(=O)N4)C2)C3)cc1` [Example 164, 2-[6-(4-mesylbenzyl)-2,6-diazaspiro[3.3]heptane-2-carbonyl]-7-oxa-2,5-diazaspiro[3.4]octan-6-one] gave a concentration for half-maximal inhibition (IC50) of 52.5 nM.

As for `Cn1ncc(CC2CC3(C2)CN(C(=O)N2CC4(CCC(=O)N4)C2)C3)c1C(F)(F)F` [Example 165], the 50% inhibitory concentration (IC50) was 0.52 nM.

For `Cn1nc(CC2CC3(C2)CN(C(=O)N2CC4(CCC(=O)N4)C2)C3)cc1C(F)(F)F` [Example 166, 2-[6-[[1-methyl-5-(trifluoromethyl)pyrazol-3-yl]methyl]-2-azaspiro[3.3]heptane-2-carbonyl]-2,5-diazaspiro[3.4]octan-6-one], it took 1.31 nM to reach half-maximal inhibition (IC50).

The compound `Cn1ncc(C(F)(F)F)c1CC1CC2(C1)CN(C(=O)N1CC3(CCC(=O)N3)C1)C2` [Example 167, 2-[6-[[2-methyl-4-(trifluoromethyl)pyrazol-3-yl]methyl]-2-azaspiro[3.3]heptane-2-carbonyl]-2,5-diazaspiro[3.4]octan-6-one] had a half-inhibitory concentration (IC50) of 1.72 nM.

In the case of `O=C1CCC2(CN(C(=O)N3CC4(CC(Cn5nccc5C(F)(F)F)C4)C3)C2)N1` [Example 168, 2-[6-[[5-(trifluoromethyl)pyrazol-1-yl]methyl]-2-azaspiro[3.3]heptane-2-carbonyl]-2,5-diazaspiro[3.4]octan-6-one], the IC50 was determined as 2.45 nM.

For `Cn1cc(CC2CC3(C2)CN(C(=O)N2CC4(CCC(=O)N4)C2)C3)c(C(F)(F)F)n1` [Example 169, 2-[6-[[1-methyl-3-(trifluoromethyl)pyrazol-4-yl]methyl]-2-azaspiro[3.3]heptane-2-carbonyl]-2,5-diazaspiro[3.4]octan-6-one], half-maximal inhibition (IC50) was put at 2.35 nM.

The compound `O=C1COCC2(CN(C(=O)N3CC4(CC(Cc5ccc(C(F)(F)F)cn5)C4)C3)C2)N1` [Example 170, 2-[6-[[5-(trifluoromethyl)-2-pyridyl]methyl]-2-azaspiro[3.3]heptane-2-carbonyl]-8-oxa-2,5-diazaspiro[3.5]nonan-6-one] gave a half-inhibitory concentration (IC50) of 7.82 nM.

In turn, `O=C1COCC2(CN(C(=O)N3CC4(CC(Cc5ncc(C(F)(F)F)cc5F)C4)C3)C2)N1` [Example 171, 2-[6-[[3-fluoro-5-(trifluoromethyl)-2-pyridyl]methyl]-2-azaspiro[3.3]heptane-2-carbonyl]-8-oxa-2,5-diazaspiro[3.5]nonan-6-one] came in with a half-maximal inhibitory concentration (IC50) of 1.42 nM.

The compound `O=C1COCC2(CN(C(=O)N3CC4(CC(Cc5cncc(Cl)c5)C4)C3)C2)N1` [Example 172, 2-[6-[(5-chloro-3-pyridyl)methyl]-2-azaspiro[3.3]heptane-2-carbonyl]-8-oxa-2,5-diazaspiro[3.5]nonan-6-one] registered a 50% inhibitory concentration (IC50) of 38.2 nM.

Compound `O=C1COCC2(CN(C(=O)N3CC4(CC(Cc5cncc(C(F)(F)F)c5)C4)C3)C2)N1` [Example 173, 2-[6-[[5-(trifluoromethyl)-3-pyridyl]methyl]-2-azaspiro[3.3]heptane-2-carbonyl]-8-oxa-2,5-diazaspiro[3.5]nonan-6-one] gave an IC50 of 20.8 nM.

Take `O=C1COCC2(CN(C(=O)N3CC4(CC(Cc5ccc(C(F)(F)F)nc5)C4)C3)C2)N1` [Example 174, 2-[6-[[6-(trifluoromethyl)-3-pyridyl]methyl]-2-azaspiro[3.3]heptane-2-carbonyl]-8-oxa-2,5-diazaspiro[3.5]nonan-6-one]: the midpoint of inhibition, the IC50, lay at 16.7 nM.

`O=C1CCC2(CN(C(=O)N3CC4(CC(Cc5ncc(Cl)cc5F)C4)C3)C2)N1` [Example 175, 2-[6-[(5-chloro-3-fluoro-2-pyridyl)methyl]-2-azaspiro[3.3]heptane-2-carbonyl]-2,5-diazaspiro[3.4]octan-6-one] showed a 50% inhibitory concentration (IC50) of 1.69 nM.

In turn, `O=C1COCC2(CN(C(=O)N3CC4(CC(Cc5ncc(F)cc5Cl)C4)C3)C2)N1` [Example 176, 2-[6-[(3-chloro-5-fluoro-2-pyridyl)methyl]-2-azaspiro[3.3]heptane-2-carbonyl]-8-oxa-2,5-diazaspiro[3.5]nonan-6-one] yielded a half-inhibitory concentration (IC50) of 3 nM.

On to `O=C1COCC2(CN(C(=O)N3CC4(CC(Cc5ccc(OC(F)(F)F)cn5)C4)C3)C2)N1` [Example 177, 2-[6-[[5-(trifluoromethoxy)-2-pyridyl]methyl]-2-azaspiro[3.3]heptane-2-carbonyl]-8-oxa-2,5-diazaspiro[3.5]nonan-6-one], for which the IC50 was determined as 2.01 nM.

As to `O=C1COCC2(CN(C(=O)N3CC4(CC(Cc5cc(C(F)(F)F)ccn5)C4)C3)C2)N1` [Example 178, 2-[6-[[4-(trifluoromethyl)-2-pyridyl]methyl]-2-azaspiro[3.3]heptane-2-carbonyl]-8-oxa-2,5-diazaspiro[3.5]nonan-6-one], 15.4 nM corresponded to half-maximal inhibition (IC50).

In turn, `O=C1CCC2(CN(C(=O)N3CC4(CC(Cc5ccc(OC(F)(F)F)nc5)C4)C3)C2)N1` [Example 179, 2-[6-[[6-(trifluoromethoxy)-3-pyridyl]methyl]-2-azaspiro[3.3]heptane-2-carbonyl]-2,5-diazaspiro[3.4]octan-6-one] had an IC50 of 1.66 nM.

Consider `O=C1COCC2(CN(C(=O)N3CC4(CC(Cc5cncc(F)c5)C4)C3)C2)N1` [Example 180, 2-[6-[(5-fluoro-3-pyridyl)methyl]-2-azaspiro[3.3]heptane-2-carbonyl]-8-oxa-2,5-diazaspiro[3.5]nonan-6-one], for which the IC50 was determined as 202 nM.

Regarding `CS(=O)(=O)c1ccc(CC2CC3(C2)CN(C(=O)N2CC4(COCC(=O)N4)C2)C3)cc1C(F)(F)F` [Example 181, 2-[6-[[4-methylsulfonyl-3-(trifluoromethyl)phenyl]methyl]-2-azaspiro[3.3]heptane-2-carbonyl]-8-oxa-2,5-diazaspiro[3.5]nonan-6-one], the IC50 was 1.45 nM.

`O=C1COCC2(CN(C(=O)N3CC4(CC(Cc5cccc(S(=O)(=O)C(F)(F)F)c5)C4)C3)C2)N1` [Example 182, 2-[6-[[3-(trifluoromethylsulfonyl)phenyl]methyl]-2-azaspiro[3.3]heptane-2-carbonyl]-8-oxa-2,5-diazaspiro[3.5]nonan-6-one] yielded an IC50 of 485 nM.

Regarding `CS(=O)(=O)c1ccc(CC2CC3(C2)CN(C(=O)N2CC4(COCC(=O)N4)C2)C3)cc1C(F)(F)F` [Example 183], inhibition was half-maximal at 7.31 nM (IC50).

As for `CS(=O)(=O)c1cc(C(F)(F)F)ccc1CC1CC2(C1)CN(C(=O)N1CC3(COCC(=O)N3)C1)C2` [Example 184, 2-[6-[[2-methylsulfonyl-4-(trifluoromethyl)phenyl]methyl]-2-azaspiro[3.3]heptane-2-carbonyl]-8-oxa-2,5-diazaspiro[3.5]nonan-6-one], the IC50 was found to be 210 nM.

In turn, `CS(=O)(=O)c1cc(C(F)(F)F)ccc1CC1CC2(C1)CN(C(=O)N1CC3(CCCC(=O)N3)C1)C2` [Example 185, 2-[6-[[2-methylsulfonyl-4-(trifluoromethyl)phenyl]methyl]-2-azaspiro[3.3]heptane-2-carbonyl]-2,5-diazaspiro[3.5]nonan-6-one] had a half-maximal inhibitory concentration (IC50) of 34.5 nM.

`O=C1CCCC2(CN(C(=O)N3CC4(CC(Cc5cccc(S(=O)(=O)C(F)(F)F)c5)C4)C3)C2)N1` [Example 186, 2-[6-[[3-(trifluoromethylsulfonyl)phenyl]methyl]-2-azaspiro[3.3]heptane-2-carbonyl]-2,5-diazaspiro[3.5]nonan-6-one] came in with an IC50 of 95 nM.

Turning to `CS(=O)(=O)c1cccc(CN2CC3(C2)CN(C(=O)N2CC4(COC(=O)N4)C2)C3)c1` [Example 187, 2-[6-[(3-methylsulfonylphenyl)methyl]-2,6-diazaspiro[3.3]heptane-2-carbonyl]-7-oxa-2,5-diazaspiro[3.4]octan-6-one], it took 46.7 nM to reach half-maximal inhibition (IC50).

Turning to `O=C1NC2(CO1)CN(C(=O)N1CC3(CCN(S(=O)(=O)c4ccc(C(F)(F)F)cc4F)CC3)C1)C2` [Example 189, 2-[7-[2-fluoro-4-(trifluoromethyl)phenyl]sulfonyl-2,7-diazaspiro[3.5]nonane-2-carbonyl]-7-oxa-2,5-diazaspiro[3.4]octan-6-one], 1.72 nM corresponded to half-maximal inhibition (IC50).

As to `O=C1NC2(CO1)CN(C(=O)N1CC3(C1)CN(S(=O)(=O)c1ccccc1OC(F)(F)F)C3)C2` [Example 190, 2-[2-[2-(trifluoromethoxy)phenyl]sulfonyl-2,6-diazaspiro[3.3]heptane-6-carbonyl]-7-oxa-2,5-diazaspiro[3.4]octan-6-one], the IC50 is 10.4 nM.

For `O=C1NC2(CO1)CN(C(=O)N1CC3(C1)CN(S(=O)(=O)c1ccc(OC(F)(F)F)cc1)C3)C2` [Example 191, 2-[2-[4-(trifluoromethoxy)phenyl]sulfonyl-2,6-diazaspiro[3.3]heptane-6-carbonyl]-7-oxa-2,5-diazaspiro[3.4]octan-6-one], the IC50 amounted to 30 nM.

The compound `O=C1NC2(CO1)CN(C(=O)N1CC3(C1)CN(S(=O)(=O)c1cccc(OC(F)(F)F)c1)C3)C2` [Example 192, 2-[2-[3-(trifluoromethoxy)phenyl]sulfonyl-2,6-diazaspiro[3.3]heptane-6-carbonyl]-7-oxa-2,5-diazaspiro[3.4]octan-6-one] gave a 50% inhibitory concentration (IC50) of 14.7 nM.

`CC1(NS(=O)(=O)N2CC3(CN(C(=O)N4CC5(COC(=O)N5)C4)C3)C2)CC1` [Example 193, N-(1-methylcyclopropyl)-6-(6-oxo-7-oxa-2,5-diazaspiro[3.4]octane-2-carbonyl)-2,6-diazaspiro[3.3]heptane-2-sulfonamide] yielded an IC50 of 65.3 nM.
